Results as given in patent US8445501B2, “Substituted 7-carboxamido-pyrrolo[3,2-d]pyrimidines” (Takeda GmbH, priority 2008, dated 2013).

Each compound was assayed against T1, human PDE5 (Homo sapiens, UniProt O76074) (assay: Inhibition of the type 5 phosphodiesterase (PDE5) activity, modified SPA test with platelet lysate). Details: PDE5 from human platelet lysate, 0.5 μM cGMP.
T1 construct: from tissue; host or cells: platelets from fresh blood of human donors (lysate, 10,000 g supernatant)
Format: biochemical
Method in brief: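 SPA-based cGMP hydrolysis, [3H]cGMP tracer in 0.5 μM cGMP, by sonicated human platelet lysate; motapizone (1 μM) and a PDE2 inhibitor (10 nM) block other PDEs. Reaction 15 min at 37 °C after 5 min preincubation, quenched with beads containing IBMX. IC50 from concentration-effect curves.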

| IC50 [nM] | -log IC50 (mol/l) | Compound |
| --- | --- | --- |
| 0.55 |  | COc1ccc(-c2ncnc3c(C(=O)N[C@H]4CC[C@H](C(=O)NC5CC5)CC4)c[nH]c23)c(OCC2CC2)c1 [Example 271, trans-4-(2-Cyclopropylmethoxy-4-methoxy-phenyl)-5H-pyrrolo[3,2-d]pyrimidine-7-carboxylic acid (4-cyclopropylcarbamoyl-cyclohexyl)-amide] |
| 0.708 |  | COCCNC(=O)[C@H]1CC[C@H](NC(=O)c2c[nH]c3c(-c4ccc(OC)cc4OCC4CC4)ncnc23)CC1 [Example 272, trans-4-(2-Cyclopropylmethoxy-4-methoxy-phenyl)-5H-pyrrolo[3,2-d]pyrimidine-7-carboxylic acid [4-(2-methoxy-ethylcarbamoyl)-cyclohexyl]-amide] |
| 2.19 |  | O=C(N[C@H]1CC[C@H](C(=O)NC2CC2)CC1)c1c[nH]c2c(-c3cc(F)ccc3OCC3CC3)ncnc12 [Example 273, trans-4-(2-Cyclopropylmethoxy-5-fluoro-phenyl)-5H-pyrrolo[3,2-d]pyrimidine-7-carboxylic acid (4-cyclopropylcarbamoyl-cyclohexyl)-amide] |
| 5.25 |  | COCCNC(=O)[C@H]1CC[C@H](NC(=O)c2c[nH]c3c(-c4cc(F)ccc4OCC4CC4)ncnc23)CC1 [Example 274, trans-4-(2-Cyclopropylmethoxy-5-fluoro-phenyl)-5H-pyrrolo[3,2-d]pyrimidine-7-carboxylic acid [4-(2-methoxy-ethylcarbamoyl)-cyclohexyl]-amide] |
| 0.347 |  | COCCNC(=O)[C@H]1CC[C@H](NC(=O)c2c[nH]c3c(-c4c(OCC5CCC5)ccc5c4OCO5)ncnc23)CC1 [Example 275, trans-4-(5-Cyclobutylmethoxy-benzo[1,3]dioxol-4-yl)-5H-pyrrolo[3,2-d]pyrimidine-7-carboxylic acid [4-(2-methoxy-ethylcarbamoyl)-cyclohexyl]-amide] |
| 0.166 |  | O=C(N[C@H]1CC[C@H](C(=O)NC2CC2)CC1)c1c[nH]c2c(-c3c(OCC4CCC4)ccc4c3OCO4)ncnc12 [Example 276, trans-4-(5-Cyclobutylmethoxy-benzo[1,3]dioxol-4-yl)-5H-pyrrolo[3,2-d]pyrimidine-7-carboxylic acid (4-cyclopropylcarbamoyl-cyclohexyl)-amide] |
| 93.3 |  | CC(=O)N1CCC(NC(=O)c2c[nH]c3c(-c4cc(F)c(O)cc4OCC4CC4)ncnc23)CC1 [Example 277, 4-(2-Cyclopropylmethoxy-5-fluoro-4-hydroxy-phenyl)-5H-pyrrolo[3,2-d]pyrimidine-7-carboxylic acid (1-acetyl-piperidin-4-yl)-amide] |
| 57.5 |  | CCC(=O)N1CCC(NC(=O)c2c[nH]c3c(-c4cc(F)c(O)cc4OCC4CC4)ncnc23)CC1 [Example 278, 4-(2-Cyclopropylmethoxy-5-fluoro-4-hydroxy-phenyl)-5H-pyrrolo[3,2-d]pyrimidine-7-carboxylic acid (1-propionyl-piperidin-4-yl)-amide] |
| 2.34 |  | CC(=O)N1CCC(NC(=O)c2c[nH]c3c(-c4cc(F)c(OC(F)F)cc4OCC4CC4)ncnc23)CC1 [Example 279, 4-[2-Cyclopropylmethoxy-4-(1,1-difluoro-methoxy)-5-fluoro-phenyl]-5H-pyrrolo[3,2-d]pyrimidine-7-carboxylic acid (1-acetyl-piperidin-4-yl)-amide] |
| 1.74 |  | COCC(=O)N1CCC(NC(=O)c2c[nH]c3c(-c4cc(F)c(OC(F)F)cc4OCC4CC4)ncnc23)CC1 [Example 280, 4-[2-Cyclopropylmethoxy-4-(1,1-difluoro-methoxy)-5-fluoro-phenyl]-5H-pyrrolo[3,2-d]pyrimidine-7-carboxylic acid [1-(2-methoxy-ethanoyl)-piperidin-4-yl]amide] |
| 851 |  | O=C(NC1CCN(C(=O)CO)CC1)c1c[nH]c2c(-c3cc(F)c(O)cc3OCC3CC3)ncnc12 [Example 281, 4-(2-Cyclopropylmethoxy-5-fluoro-4-hydroxy-phenyl)-5H-pyrrolo[3,2-d]pyrimidine-7-carboxylic acid [1-(2-hydroxy-acetyl)piperidin-4-yl]-amide] |
| 251 |  | C[C@H](O)C(=O)N1CCC(NC(=O)c2c[nH]c3c(-c4cc(F)c(O)cc4OCC4CC4)ncnc23)CC1 [Example 282, 4-(2-Cyclopropylmethoxy-5-fluoro-4-hydroxy-phenyl)-5H-pyrrolo[3,2-d]pyrimidine-7-carboxylic acid [1-((S)-2-hydroxy-propionyl)piperidin-4-yl]-amide] |
| 5.13 |  | O=C(NC1CCN(C(=O)CO)CC1)c1c[nH]c2c(-c3cc(F)c(OC(F)F)cc3OCC3CC3)ncnc12 [Example 283, 4-[2-Cyclopropylmethoxy-4-(1,1-difluoro-methoxy)-5-fluoro-phenyl]-5H-pyrrolo[3,2-d]pyrimidine-7-carboxylic acid [1-(2-hydroxy-acetyl)piperidin-4-yl]-amide] |
| 2.88 |  | C[C@H](O)C(=O)N1CCC(NC(=O)c2c[nH]c3c(-c4cc(F)c(OC(F)F)cc4OCC4CC4)ncnc23)CC1 [Example 284, 4-[2-Cyclopropylmethoxy-4-(1,1-difluoro-methoxy)-5-fluoro-phenyl]-5H-pyrrolo[3,2-d]pyrimidine-7-carboxylic acid [1-((S)-2-hydroxy-propionyl)-piperidin-4-yl]-amide] |
|  | 8.46 | trans-4-(2-Cyclopropylmethoxy-4-fluoro-phenyl)-5H-pyrrolo[3,2-d]pyrimidine-7-carboxylic acid [4-((S)-2-hydroxy-propionylamino)-cyclohexyl]-amide [Example 223] |
